According to PubChem BioAssay AID492955 (The Scripps Research Institute Molecular Screening Center, 2010):
The source made the active and inactive calls.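 Rule for the calls: active = at 10 µM dose, any replicate showing 50% or greater reduction of parasite growth in red cells; inactive = the rest.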

Test system: P. falciparum 3D7 in RBCs, 3H-hypoxanthine uptake, 48 h
Test: single-dose blood-stage antimalarial activity – cell-based, radiolabel, RBCs, powder samples, M17LAP inhibitor project, late-stage follow-up (AID 492955)
Conditions: at 10 µM; hits give high values

Structure (SMILES): O=C(O)CCCCCNC(=O)Nc1ccc2c(c1)OCCO2
- inhibition: 6.33% (inactive)

Structure (SMILES): COc1cc(NC(=O)CSc2nc3cc(C)ccc3cc2C)c(C(=O)O)cc1OC
- inhibition: 5.17% (inactive)

Structure (SMILES): O=C(O)Cc1ccc(NC(=O)Nc2ccc(Br)cc2)cc1
- inhibition: 1.67% (inactive)

Structure (SMILES): Cn1c(SCC(=O)Nc2cccc3ccccc23)nc(O)cc1=O
- inhibition: 2.5% (inactive)

Structure (SMILES): O=C(CSc1nc(O)cc(=O)n1-c1ccccc1)Nc1ccc2c3c(cccc13)CC2
- inhibition: 3% (inactive)

Structure (SMILES): CCc1ccc(Nc2nnc(SC3CCOC3=O)s2)cc1 (stereo unspecified)
- inhibition: 0% (inactive)

Structure (SMILES): COC(=O)c1c(NC(=O)[C@H]2CCCC[C@H]2C(=O)O)sc2c1CCCCC2
- inhibition: 3.33% (inactive)

Structure (SMILES): CN1C(=O)/C(=C/c2ccc(-c3ccccc3[N+](=O)[O-])o2)SC1=Nc1ccc(Cl)c(C(=O)O)c1
- inhibition: 0% (inactive)

Structure (SMILES): CCN(CC)c1ccc(NC(=O)CSc2nc(C)cc(=O)[nH]2)cc1
- inhibition: 3.5% (inactive)

Structure (SMILES): Cc1ccc(-n2c(C)cc(C(=O)COC(=O)c3ccc[nH]c3=O)c2C)cc1C
- inhibition: 3.17% (inactive)

Structure (SMILES): CCCCOc1ccc(CC(=O)NO)cc1
- inhibition: 81.2%

Structure (SMILES): Cc1cc(C(=O)COC(=O)c2ccc[nH]c2=O)c(C)n1-c1ccc(F)cc1
- inhibition: 0% (inactive)

Structure (SMILES): Cc1ccc(NC(=O)CSc2nnc(C)c(=O)[nH]2)cc1C
- inhibition: 15.8% (inactive)

Structure (SMILES): Cc1ccc(-c2c(C)sc(NC(=O)[C@@H]3C4CCC(O4)[C@@H]3C(=O)O)c2C(=O)OC(C)C)cc1 (stereo partly specified)
- inhibition: 6.33% (inactive)

Structure (SMILES): CCc1cc2cc(OC)ccc2nc1SCC(=O)Nc1cc(OC)c(OC)cc1C(=O)O
- inhibition: 2.33% (inactive)

Structure (SMILES): COC(=O)c1c(-c2cc(C)ccc2C)csc1NC(=O)[C@@H]1CC=CC[C@@H]1C(=O)O
- inhibition: 3.33% (inactive)

Structure (SMILES): COc1cc(NC(=O)CSc2nc3ccccc3cc2C)c(C(=O)O)cc1OC
- inhibition: 5.89% (inactive)

Structure (SMILES): Cc1ccc(-n2c(C)cc(C(=O)COC(=O)c3ccc[nH]c3=O)c2C)cc1
- inhibition: 20% (inactive)

Structure (SMILES): COC(=O)c1cccc(NC(=O)CSc2nc(C)cc(=O)[nH]2)c1
- inhibition: 9.78% (inactive)

Structure (SMILES): COc1ccc2nc(SCC(=O)Nc3cc(OC)c(OC)cc3C(=O)O)c(C)cc2c1
- inhibition: 1.44% (inactive)

Structure (SMILES): C=CCn1c(SCC(=O)Nc2cccc3ccccc23)nc(O)c(CC)c1=O
- inhibition: 8.22% (inactive)

Structure (SMILES): CCOc1cccc(-c2cc(=O)[nH][nH]2)c1
- inhibition: 2.83% (inactive)

Structure (SMILES): CCn1c2ccccc2c2cc(NC(=O)CSc3nccc(=O)[nH]3)ccc21
- inhibition: 2.67% (inactive)

Structure (SMILES): CCOc1ccc(NC(=O)Nc2ccc3nccnc3c2)cc1
- inhibition: 16% (inactive)

Structure (SMILES): CCOc1ccc(NC(=O)Nc2cccs2)cc1
- inhibition: 0% (inactive)

Structure (SMILES): CCc1ccc(NC(=O)[C@H]2CC=CC[C@H]2C(=O)O)cc1
- inhibition: 0% (inactive)

Structure (SMILES): COC(=O)c1c(-c2ccc(C)cc2)csc1NC(=O)[C@H]1CC=CC[C@H]1C(=O)O
- inhibition: 0% (inactive)

Structure (SMILES): Cc1cc(C(=O)COC(=O)c2ccc[nH]c2=O)c(C)n1-c1ccccc1
- inhibition: 6.67% (inactive)

Structure (SMILES): Cc1ccc(Nc2nnc(SC3CCOC3=O)s2)cc1 (stereo unspecified)
- inhibition: 4% (inactive)

Structure (SMILES): S=c1nc(-c2cccc(Cl)c2)[nH][nH]1
- inhibition: 0% (inactive)

Structure (SMILES): O=C(CSc1nnc(Nc2ccccc2)s1)NN1C(=O)NC2(CCCCC2)C1=O
- inhibition: 12.9% (inactive)

Structure (SMILES): Cc1ccc(Nc2nnc(SCc3cc(=O)n4ccsc4n3)s2)c(C)c1
- inhibition: 18.4% (inactive)

Structure (SMILES): CCc1cc2ccc(C)cc2nc1SCC(=O)Nc1cc(OC)c(OC)cc1C(=O)O
- inhibition: 6.44% (inactive)

Structure (SMILES): Cc1noc(NS(=O)(=O)c2ccc(NC(=O)CSc3nnc4c(n3)[nH]c3ccccc34)cc2)c1C
- inhibition: 1.67% (inactive)

Structure (SMILES): O=C(CSc1nccc(=O)[nH]1)Nc1ccc(Br)c(Cl)c1
- inhibition: 8.67% (inactive)

Structure (SMILES): N#Cc1c(NC(=O)[C@@H]2C3C=CC(C3)[C@@H]2C(=O)O)sc2c1CCCCC2 (stereo partly specified)
- inhibition: 0% (inactive)

Structure (SMILES): Cc1ccc(-c2cccc(NC(=O)[C@@H]3C4C=CC(C4)[C@@H]3C(=O)O)c2)o1 (stereo partly specified)
- inhibition: 8.83% (inactive)

Structure (SMILES): COC(=O)c1c(-c2ccco2)csc1NC(=O)[C@H]1CC=CC[C@H]1C(=O)O
- inhibition: 0% (inactive)

Structure (SMILES): CCOC(=O)c1c(-c2cccc(C)c2)csc1NC(=O)[C@H]1CC=CC[C@H]1C(=O)O
- inhibition: 1.83% (inactive)

Structure (SMILES): CC1=C(C)C[C@@H](C(=O)O)[C@@H](C(=O)Nc2cccc([N+](=O)[O-])c2)C1
- inhibition: 11.2% (inactive)

Structure (SMILES): CCCCc1c(O)nc(SCC(=O)Nc2ccc3c(c2)CCC3)[nH]c1=O
- inhibition: 7.67% (inactive)

Structure (SMILES): COc1ccc(NC(=O)CSc2nc(O)cc(=O)n2C)cc1
- inhibition: 3.67% (inactive)

Structure (SMILES): CCOC(=O)c1c(NC(=O)[C@@H]2C3C=CC(C3)[C@@H]2C(=O)O)sc2c1CCC(CC)C2 (stereo partly specified)
- inhibition: 5% (inactive)

Structure (SMILES): CC(C)c1ccc(NC(=O)[C@H]2CCCC[C@H]2C(=O)O)cc1
- inhibition: 5.67% (inactive)

Structure (SMILES): CCc1cc2ccccc2nc1SCC(=O)Nc1cc(OC)c(OC)cc1C(=O)O
- inhibition: 2.78% (inactive)

Structure (SMILES): O=c1cc(-c2ccc(Cl)c(Cl)c2)[nH][nH]1
- inhibition: 2.67% (inactive)

Structure (SMILES): COc1ccc(-c2cc(=O)[nH][nH]2)cc1OC
- inhibition: 3.83% (inactive)

Structure (SMILES): COc1ccc(NC(=O)CSC2=NC(=O)CC(C)=N2)cc1
- inhibition: 0% (inactive)

Structure (SMILES): COc1ccc(C(C)(C)C)cc1NC(=O)[C@H]1CC=CC[C@H]1C(=O)O
- inhibition: 0% (inactive)

Structure (SMILES): CCc1cc2cc3c(cc2nc1SCC(=O)Nc1cc(OC)c(OC)cc1C(=O)O)OCO3
- inhibition: 0% (inactive)

Structure (SMILES): CCOC(=O)c1c(NC(=O)[C@@H]2C3CCC(O3)[C@@H]2C(=O)O)sc(C)c1-c1ccc(C)cc1 (stereo partly specified)
- inhibition: 0% (inactive)

Structure (SMILES): O=C(Nc1cccc(Cl)c1)[C@H]1CC=CC[C@H]1C(=O)O
- inhibition: 0.333% (inactive)

Structure (SMILES): COc1cc(NC(=O)CSc2nnc3c(C)cc4cc(C)cc(C)c4n23)c(C(=O)O)cc1OC
- inhibition: 7.56% (inactive)

Structure (SMILES): N#Cc1c(-c2ccccc2)nc(SCC(=O)N2c3ccccc3Sc3ccccc32)[nH]c1=O
- inhibition: 1% (inactive)

Structure (SMILES): S=c1nc(-c2ccccc2Br)[nH][nH]1
- inhibition: 0% (inactive)

Structure (SMILES): COc1cc(NC(=O)CSc2nc3c(C)ccc(C)c3cc2C)c(C(=O)O)cc1OC
- inhibition: 5% (inactive)

Structure (SMILES): CC1=Nc2ccc(C)cc2/C1=C/c1c(N)n2c(S(=O)(=O)C(C)C)nsc2nc1=O
- inhibition: 19.2% (inactive)

Structure (SMILES): COc1ccc(-c2cc(=O)[nH][nH]2)cc1
- inhibition: 0% (inactive)

Structure (SMILES): CC(=O)NS(=O)(=O)c1ccc(N=c2ssc3c2-c2ccc(C)cc2NC3(C)C)cc1
- inhibition: 4.5% (inactive)

Structure (SMILES): O=c1cc(-c2ccc(F)cc2)[nH][nH]1
- inhibition: 5.67% (inactive)

Structure (SMILES): O=C(Nc1cc(Cl)ccc1Cl)[C@H]1CC=CC[C@H]1C(=O)O
- inhibition: 1.33% (inactive)

Structure (SMILES): COc1cc(NC(=O)CSc2ncnc3scc(-c4ccccc4)c23)c(C(=O)O)cc1OC
- inhibition: 6.83% (inactive)

Structure (SMILES): CCc1nnc(NC(=O)CSc2nnc(-c3ccc(NS(=O)(=O)c4ccccc4)cc3)o2)s1
- inhibition: 2.33% (inactive)

Structure (SMILES): CCOC(=O)c1c(-c2ccc(C)cc2)csc1NC(=O)[C@H]1CC=CC[C@H]1C(=O)O
- inhibition: 10.7% (inactive)

Structure (SMILES): O=C(Nc1ccc(Cl)cc1)Nc1cccc(C(=O)O)c1
- inhibition: 0% (inactive)

Structure (SMILES): COC(=O)c1c(NC(=O)[C@H]2CC=CC[C@H]2C(=O)O)sc(C)c1C
- inhibition: 1.33% (inactive)
